Experimental data published in publication PMC9865214 (International Journal of Molecular Sciences, 2023).
Where a name gives a salt, the structure may show the parent alone.

Tests used:
[1] = test system: TLR4 activation-induced cytokine expression; settings: cited from earlier work
From the text: The synaptic model of hyperalgesia is the LTP at C-fibre synapses. The induction of hyperalgesia and LTP by inducible mediators including TNFα was discovered and called gliogenic LTP [35]. […] The opioid-mediated effect is established by an exogenous peptide if an opioid receptor is activated or if an endogenous opioid release is induced.

[2] = test system: chronic constriction injury model; settings: chronic constriction injury model in rats; ref [75]; cited from earlier work
From the text: (§1) The similarity of the first two amino acids in the N-terminal region of CART(62-76) to endogenous opioid peptides raises the possibility that this fragment may also bind to […]. Specific binding studies are necessary to answer this question. […] Further studi ...

chronic pain states = settings: low-dose NTX, humans; ref [76]; cited from earlier work
From the text: as §1

[3] = test system: TLR4 in the TLR4/myeloid differentiation protein-2 heterodimer; settings: ref [68],[69],[70] (NTX, naloxone), [71] (CTAP); cited from earlier work
From the text: (§2) The opioid-mediated effect is established by an exogenous peptide if an opioid receptor is activated or if an endogenous opioid release is induced.

[4] = test system: inflammatory hyperalgesia; settings: naltrexone alone; ref [67]; cited from earlier work
From the text: as §2

[5] = test system: hyperalgesia provoked by carrageenan or partial nerve ligation; settings: no ref given; cited from earlier work
From the text: Further studies are needed to reveal the signalling mechanism to understand this process.

[6] = IPI content of L3-L5 spinal segments by mass spectrometry; type: in vivo, Wistar rat; settings: CART(55-76)-treated inflamed rats; LC-MS/MS; p = 0.032 vs inflamed, p = 0.027 vs naive
Protocol: Three naïve adult male Wistar rats (NG10, NG11, and NG12), 3 rats with unilateral carrageenan-induced hind paw inflammation (GG9, GG10, and GG11), and 3 inflamed rats that received CART(55-76) peptide intrathecally (CG9, CG10, and CG11) were decapitated, and L3–L5 spinal cord segments were removed and snap frozen on dry ice. Tissue was homogenized by sonication in cold acetonitrile (4 °C) in a volume of 10 µL/mg of tissue and centrifuged for 10 min at 14,000 rpm. Supernatant was transferred into Eppendorf tubes and stored at −80 °C until use.
Standard solution of IPI was used for making the calibration curve in the range of 0–50 ng/mL. […] Water containing 0.1% formic acid (eluent A) and acetonitrile containing 0.1% formic acid (eluent B) were used for separation in gradient mode. […] The initial concentration was reached within 0.5 min, and the equilibration time was 5.5 min. The flow rate was 0.5 mL/minute. Column temperature was ambient. The injection volume was 10 µL. […] MRM transitions were identified in product ion scan mode. […] Dwell times were 150 ms for each transition.

[7] = test system: spinal astrocytes (DPP4, TLR4, caveolin-1); experiment: Immunocytochemistry of spinal astrocytes (DPP4, TLR4, caveolin-1); type: cell-based, Wistar rat
Protocol: (§3) For the production of spinal cord astrocyte cultures, we followed the procedure already described by Pap et al. with slight modifications. Briefly, the whole spinal cord was removed from 7–8 day-old Wistar rat pups after decapitation and was placed into ice-cold dissecting buffer (136 mM NaCl, 5.2 mM KCl, 0.64 mM Na2HPO4, 0.22 mM KH2PO4, 16.6 mM glucose, 22 mM sucrose, 10 mM HEPES supplemented with 0.06 U/mL penicillin and 0.06 U/mL streptomycin). The isolated spinal cords were cleaned of the meninges, then were placed into fresh dissecting solution containing 0.025 g/mL bovine trypsin (Merck–Sigma-Aldrich), and were incubated at 37 °C for 30 min. Then, the solution was replaced by Minimum Essential Medium (MEM, Gibco, Life Technologies Ltd., Parsely, UK) supplemented with 10% Fetal Bovine Serum (FBS, Hyclone, GE Healthcare Bio-Sciences, Pittsburgh, PA, USA). Finally, cells were suspended by gentle suspension of the tissue pieces by a Pasteur pipette. The cell number was identified, the cell density was set to 1 × 10^6/mL, and the cells were placed into 24 well tissue culture plates (0.5 mL/well). The cell cultures were kept at 37 °C in a 5% CO2 atmosphere, and the medium was replaced the following day and then every second day. […]

[8] = test system: spinal astrocytes (TNFα secretion); experiment: TNFα secretion of LPS-stimulated spinal astrocyte cultures, ELISA; type: cell-based, Wistar rat; settings: 1 μg/mL LPS, control level set to 100%
Protocol: as §3, with “USA).” for “USA). Finally, cells were suspended by gentle suspension of the tissue pieces by a Pasteur pipette. The cell number was identified, the cell density was set to 1 × 10^6/mL, and the cells were placed into 24 well tissue culture plates (0.5 mL/well). The cell cultures were kept at 37 °C in a 5% CO2 atmosphere, and the medium was replaced the following day and then every second day.”
ELISA was performed as already described. […] Colour reaction was developed by o-phenylene-diamine, and the optical density was measured at λ = 492 nm by ELISA plate reader (Titertek, Uniscan, Flow Laboratories, Helsinki, Finland).
Optical density data were averaged, and the standard error of mean values was calculated for each treatment. […] Statistically significant differences were calculated by one-way ANOVA followed by Student-Newman-Keuls pairwise comparison. […]

[9] = test system: spinal astrocytes (DPP4 expression); experiment: DPP4 expression of spinal astrocytes, western blot; type: cell-based, Wistar rat; settings: 1 μg/mL LPS
Protocol: as §3, with “mL/well).” for “mL/well). The cell cultures were kept at 37 °C in a 5% CO2 atmosphere, and the medium was replaced the following day and then every second day.”
Fractions of 50 µg protein/lane cytosol were run on 10% polyacrylamide gels. […] Relative protein levels for DPP4 upon 16 h of LPS treatment were quantified by densitometry in three independent astrocyte cultures and analysed by the Kolmogorov-Smirnov statistical test.

**Q.** Which results are given for `O=C1CC[C@@]2(O)[C@H]3Cc4ccc(O)c5c4[C@@]2(CCN3CC2CC2)[C@H]1O5` [NTX, naltrexone hydrochloride]?
**A.** Effect on TLR4 agonist-induced cytokine production ([1]; ref [72]): did not block the TLR4 agonist-induced cytokine production; Antiallodynic effect [2]: antiallodynic effect; Effect in chronic pain states (chronic pain states): effective in a variety of chronic pain states in humans; TLR4 antagonism [3]: TLR4 antagonists; Effect on inflammatory hyperalgesia [4]: no effect on inflammatory hyperalgesia

**Q.** With `Cn1c(=O)cc(N2CCC[C@@H](N)C2)n(Cc2ccccc2C#N)c1=O` [algogliptin] as the compound, how does the “Effect on TLR4 activation-induced cytokine expression” value ([1]; IL-6, IL-1β and other cytokines, ref [57]) read?
**A.** decreased the TLR4 activation-induced IL-6, IL-1β, and other cytokine expression

**Q.** Which “Antihyperalgesic effect in neuropathic condition” value [5] does the source give for `N#C[C@@H]1CCCN1C(=O)CNC12CC3CC(CC(O)(C3)C1)C2` [vildagliptin] here?
**A.** antihyperalgesic effects in a neuropathic condition

**Q.** For `CC[C@H](C)[C@H](N)C(=O)N1CCC[C@H]1C(=O)N[C@H](C(=O)O)[C@@H](C)CC` [IPI, isoleucine-proline-isoleucine], which “IPI concentration of spinal segments, change” value [6] is on record?
**A.** increased significantly

**Q.** For “D-Phe-Cys-Tyr-D-Trp-Arg-Thr-Pen-Thr-NH2 [CTAP]”, which TLR4 antagonism [3] is on record?
**A.** TLR4 antagonists

**Q.** Which DPP4 staining intensity ([7]; 1 μg/mL LPS, 6 h) does the source give for lipopolysaccharide [LPS] here?
**A.** considerably increased

**Q.** What about the “TLR4 and caveolin-1 subcellular localization” value ([7]; LPS-stimulated cultures, 1 μg/mL) of the same compound?
**A.** both proteins were trafficked toward the cell surface

**Q.** What about the “Relative TNFα secretion with LPS” value [8] of the same compound?
**A.** 368 ± 9%

**Q.** What about the “DPP4 optical density value” ([9]; 16 h (control 0.62 ± 0.084), densitometry) of the same compound?
**A.** 1.08 ± 0.059

**Q.** What about the “DPP4 expression level increase” value ([9]; 16 h, vs control cultures, three independent cultures, ± SEM) of the same compound?
**A.** 74.3 ± 9.6%

**Q.** For `C=CCN1CC[C@]23c4c5ccc(O)c4O[C@H]2C(=O)CC[C@@]3(O)[C@H]1C5` [naloxone], which TLR4 antagonism [3] is on record?
**A.** TLR4 antagonists
